Source: publication PMC3461044, “Probing Protein Sequences as Sources for Encrypted Antimicrobial Peptides” (PLoS ONE, 2012)
No end group written: not given here.

Assays:
[1] = test system: Xanthomonas axonopodis pv. glycines; conditions: for MIC, Xanthomonas axonopodis pv. glycines: serial 2-fold dilutions, 96-well, inoculum ~10^5 CFU/mL, highest 256 µg/mL, 48 h, OD600, NDA = Non-detectable activity; for 1/(log(MICs (mM)), Xanthomonas axonopodis pv. glycines): from MIC, 0 where no detectable activity
Description: MICs were determined using the M7-A6 protocol from the Clinical Laboratory Standards Institute (CLSI). […] Initial bacterium inoculum of ∼10^5 colony forming units/mL were transferred, along with serial 2-fold dilutions of each peptide to 96-well plates and incubated for 12 h. […] For each peptide concentration, optical density (OD600) readings were subtracted from that of the growth medium and divided by the positive control (100% bacterial growth). Inhibitory assays for X. axonopodis pv. glycines were conducted by the same methodology with longer incubation time (48 h).

[2] = Far UV circular dichroism of peptides in buffer (MRE, α-helix percentage); assay type: physicochemical; conditions: for [q]208 nm Buffer (Greenfield 69): Mean Residue Ellipticity at 208 nm; for [q]208 nm Buffer (Greenfield 69) / [q]222 nm Buffer (Chen 74): peptide in buffer, far UV CD; for [q]222 nm Buffer (Chen 74): Mean Residue Ellipticity at 222 nm; for % Helicity (Buffer) (Greenfield 69): from [q]208 nm, methodology of Greenfield et al. 1969; for % Helicity (Buffer) (Chen 74): from [q]222 nm, methodology of Chen et al. 1974
Description: Far UV CD spectra were acquired for peptides at 20 µM in buffer and in the presence of DMPC or 2∶1 DMPC:DMPG LUVs at 1 mol% peptide/phospholipids. Peptides presented different degrees of secondary structures upon LUVs addition. […] Following the addition of LUVs, some peptides changed conformation resulting in spectral features characteristic of α-helical structures.
Experiments were conducted on a Jasco-J810 spectropolarimeter (Jasco International Co., Japan). Spectra were acquired at room temperature from 194 to 260 nm as an average of 4 readings using a 0.1 cm path length cell, data pitch of 0.2 nm and a response time of 0.5 s. Data Scans of buffer and 2 mM DMPC and 2∶1 DMPC:DMPG LUVs solutions were acquired and subtracted from each peptide data. Peptides were scanned at a concentration of 20 µM in buffer and then 100 fold excess of DMPC and 2∶1 DMPC:DMPG LUVs were added, resulting in a molar ratio of 0.01 peptide/phospholipids. […] Proximity to equilibrium was verified by scanning peptides added with twice the LUVs concentration, approximately 4 mM.

[3] = test system: Staphylococcus aureus ATCC 29313; assay type: cell-based; conditions: for MIC, Staphylococcus aureus: Mueller-Hinton broth, serial 2-fold dilutions, inoculum ~10^5 CFU/mL, highest 256 µg/mL, 12 h, OD600, NDA = Non-detectable activity; for 1/(log(MICs (mM)), Staphylococcus aureus): from MIC, 0 where no detectable activity
Description: (§1) MICs were determined using the M7-A6 protocol from the Clinical Laboratory Standards Institute (CLSI). Escherichia coli ATCC 25922, Pseudomonas aeruginosa ATCC 27853, Staphylococcus aureus ATCC 29313 were streaked in Mueller-Hinton agar, grown overnight at 37°C, transferred to Mueller-Hinton broth and incubated until readings at 600 nm reached the equivalent of 0.5 in the MacFarland scale. […]. Inhibitory assays for X. axonopodis pv. glycines were conducted by the same methodology with longer incubation time (48 h).

[4] = test system: Pseudomonas aeruginosa ATCC 27853; assay type: cell-based; conditions: for MIC, Pseudomonas aeruginosa: Mueller-Hinton broth, serial 2-fold dilutions, inoculum ~10^5 CFU/mL, highest 256 µg/mL, 12 h, OD600, NDA = Non-detectable activity; for 1/(log(MICs (mM)), Pseudomonas aeruginosa): from MIC, 0 where no detectable activity
Description: as §1

[5] = test system: Escherichia coli ATCC 25922; assay type: cell-based; conditions: for MIC, Escherichia coli: Mueller-Hinton broth, serial 2-fold dilutions, inoculum ~10^5 CFU/mL, highest 256 µg/mL, 12 h, OD600, NDA = Non-detectable activity; for 1/(log(MICs (mM)), Escherichia coli): from MIC, 0 where no detectable activity
Description: as §1

Substance	MIC, Xanthomonas axonopodis pv. glycines [1]	[q]208 nm Buffer (Greenfield 69) [2]	[q]222 nm Buffer (Chen 74) [2]	% Helicity (Buffer) (Greenfield 69) [2]	% Helicity (Buffer) (Chen 74) [2]	1/(log(MICs (mM)), Xanthomonas axonopodis pv. glycines) [1]	MIC, Staphylococcus aureus [3]	1/(log(MICs (mM)), Staphylococcus aureus) [3]	MIC, Pseudomonas aeruginosa [4]	1/(log(MICs (mM)), Pseudomonas aeruginosa) [4]	MIC, Escherichia coli [5]	1/(log(MICs (mM)), Escherichia coli) [5]	concentration that inhibited the in vitro growth of X. axonopodis pv. glycines ([1]; in vitro growth)
GLNTLKKVIQGLHEVIKLVNNHA [Pseudin B, reference compound]	<2 µM												
SLWKNLSRKISGAVKAQPDLHTLLPLPGS [Q9XEY7(120–148), putative IAP; fragment of Trehalase 1 GMTRE1, Glycine max]	NDA	-11377	-2931	25.4%	8.3%	0	NDA	0	NDA	0	NDA	0	
KLKKLLAGQKDGLLGQIAAMSDLYTKK [P94692(929–955), putative IAP; fragment of Pyruvate-ferredoxin oxidoreductase, Desulfovibrio africanus]	NDA	-6507	-2066	8.6%	5.9%	0	NDA	0	NDA	0	NDA	0	
GIGDILKNLAKAAGKAALHAVGESL [HSP-4, reference compound]	<2 µM												
GLWSTIKQKGKEAAIAAAKAAGQAALGAL [DS 01, reference compound]	<1 µM												
GLWQIFSSKEEGKDNSQQKSKGDQAKEL [gb|ACU24018.1|(73–101), putative IAP; fragment of Unknown protein, Glycine max]	NDA	-7591	-2129	12.4%	6%	0	NDA	0	NDA	0	NDA	0	
AAAAAAAIKMLMDLVNERIMALNKKAKK [Q6TV81(25–52)]	<1 µM												
LVQRFHAYLHKFREAFMNVGAAAAVEGTKAA [A4HW34(187–217)]	37 µM												
LRPAILVRVKGKGL [Hyposin HA-6, reference compound]	42 µM												
VWTTAMEKSSAANFSMSRNQRRSSLHSL [gb|AAD22970.1|(120–148), putative IAP; fragment of Trehalase 1 GMTRE1, Glycine max]	NDA					0	NDA	0	NDA	0	NDA	0	
LAKRRVLTLLRQLRRVSPSS [Q7YRI0(9–28)]	<2 µM												
GIGKFLHSAKKFGKAFVGEIMNS-NH2 [Magainin-2 amide, reference compound]	13 µM												
GKFHQIKKMFLSVGVKVTSLKRIQFGDF [A5LDU0(184–211)]	10 µM												
IAAAQRITSGAADIAINWAGGLHHAKK [B0CZJ3(104–130), putative IAP; fragment of Histone deacetylase complex, Laccaria bicolor]	NDA	-17825	-7158	47.7%	20.3%	0	NDA	0	NDA	0	NDA	0	
FKALRALRLEDLRIPTSYIK [A3KLW0(117–136), putative IAP; fragment of Rubisco large chain, Anisophyllea pomifera]	NDA	-11457	-3442	25.7%	9.8%	0	NDA	0	NDA	0	NDA	0	
GLKDMIKNLAKEAAVKLAGAVINKFSPQPQ [Nattererin-1, reference compound]	<1 µM												
KAGLQFPVGRIARFLK [B4FGE3(22–37), putative IAP; fragment of Histone H2A, Zea mays]	NDA	-5213	-1506	4.2%	4.3%	0	NDA	0	NDA	0	NDA	0	
FINKAGKLQSQLRTTVVAAAAFLDAFQKVA [O43312(33–62)]	80 µM												
FFFDTLKNLAGKVIGALT [Phes, reference compound]	33 µM												
Gm0026x00785(77–103) (HKMDLHWYLRTLEEVVIRALQRFQFR)													10 µM
FVTNSKRLAEGIEKGVGNSILIKVN [Q8KG25(327–351), putative IAP; fragment of Enolase 2, Chlorobium tepidum]	NDA	-7856	-6669	13.3%	18.9%	0	NDA	0	NDA	0	NDA	0	
GHRGALKDWVQAAGGAVAAFDFTTKG [Q8RW88(70–95), putative IAP; fragment of Alpha-amylase, Citrus reticulata]	NDA	-4005	-6062	0.0168%	17.2%	0	NDA	0	NDA	0	NDA	0	
GLWSTIKQKGKE [DS 01 (1–12), fragment 1–12 of DS 01, Phyllomedusa oreades, reference compound]	NDA	-9158	-2137	17.8%	6.1%	0	NDA	0	NDA	0	NDA	0	
FLSLIPHAINAVSTLVHHF [PS -2, reference compound]	121 µM												
FKQFHFKDFNRAFGFMTRVALQAEKL [P61458(35–60)]	40 µM												
GVLDILKGAAKDLAGHVATKVINKI [Syphaxin, reference compound]	25 µM												
